Data reported in paper PMC3510254 (PLoS Pathogens, 2012).
Where no end group is shown, it is not given here.

How the values were obtained:
proteasome = assay: Proteasome inhibition of endogenous antigen processing in vHCV 827-infected B-LCLs, IFN-γ read-out of CTL lines; type: cell-based, human
immunoproteasome (20S) [1] = assay: purified immunoproteasome in digestion buffer (20 mM HEPES-NaOH pH 7.6, 2 mM MgAc2, 0.5 mM DTT); details: human, up to 6 hours
[2] = test system: constitutive proteasome (20S); assay: purified constitutive proteasome in digestion buffer (20 mM HEPES-NaOH pH 7.6, 2 mM MgAc2, 0.5 mM DTT); details: human, up to 6 hours
immunoproteasome (20S) [3] = assay: purified immunoproteasome, 4 µg in the degradation experiment, in digestion buffer; details: human, up to 6 hours
[4] = test system: constitutive proteasome (20S); assay: purified constitutive proteasome, 4 µg in the degradation experiment, in digestion buffer; details: human, up to 6 hours
immunoproteasome = target: T1, immunoproteasome (Homo sapiens, UniProt P28062+P28065+P40306); assay: In vitro proteasomal peptide digest with mass spectrometry; type: in vitro ADME; details: 25-mer precursor, 1, 2, 4 and 6 hours; 2 µg or 4 µg proteasome; extracted ion chromatograms; Fig 6; triplicate
T1 construct: Constitutive and immuno-20S proteasomes were purified from LCL721.174 and LCL721 human EBV-transformed B cell lines; endogenous in cells; host or cells: LCL721 human EBV-transformed B cell line

For CC[C@H](C)[C@H](NC(=O)[C@H]([C@@H](C)CC)N(C)C(C)=O)C(=O)N[C@H](C(=O)N[C@@H](CC(C)C)C(=O)[C@@]1(C)CO1)[C@@H](C)O [epoxomicin], the “effect on induction of epitope-specific IFN-γ production and number of responding CD8+ T cells” value (proteasome) was “delay the induction of epitope-specific IFN-γ production and considerably decrease the number of responding CD8+ T cells”.
For CC(=O)N[C@@H](CSC(=O)[C@]1([C@@H](O)C(C)C)NC(=O)[C@H](C)[C@@H]1O)C(=O)O [lactacystin], the “reductions in the number of responding CD8+ T cells” value (proteasome) was 30–70%.
AQTFLATCINGVCWTVYHGAGTRT was tested, and the fragment found (immunoproteasome (20S) [1]) was “CINGVCWTV” and the fragment found [2] was “CINGVCWTV”.
For VRVCEKMARMILMTHFPLAVMGSSY, the fragment found (immunoproteasome (20S) [3]) was “ARMILMTHF” and the fragment found [4] was “ARMILMTHF”.
With VRVCEKMARMILMTHFPLAVMGSSY [B27-in-A2] the “precursor degradation rate relative to A2-in-A2 peptide, immunoproteasomal digestion” value (immunoproteasome) was “degraded slightly more slowly than the A2-in-A2 peptide”.
